{"source": "patent US20200069644A1", "about": "“NOVEL USE OF A FORMYL PEPTIDE RECEPTOR 2/ LIPOXIN A4 RECEPTOR (FPR2/ALX) AGONIST FOR TREATMENT OF HEART FAILURE” (BRISTOL- MYERS SQUIBB COMPANY, priority 2017, published 2020)", "key": {"[1]": {"tested_on": "ischemia-reperfusion myocardial infarction in rats", "assay": "Rat model of ischemia-reperfusion myocardial infarction, 6 weeks", "format": "in vivo", "method": "In a third model of myocardial infarction, transient coronary artery occlusion followed by reperfusion was carried out in rats to induce myocardial infarction and to assess salvage of myocardium within the area at risk of myocardial infarction. Treatment with orally-administered Compound 1 (0.01, 0.1, 1, and 10 mg/kg, QD) or dosing solution without compound (QD, referred to as vehicle) was initiated 48 hours following myocardial infarction. Rats subjected to thoracotomy but not infarcted were included as surgical “sham” controls. Rats were evaluated 6 weeks following myocardial infarction to assess structure/function relationships. Hearts were removed from rats for histological processing to the extent of myocardial salvage with Compound 1 treatment. The pressure-volume conductance catheter technique was used to evaluate cardiac function.\nThe effects of Compound 1 on left ventricle and infarct scar remodeling were evaluated in a rat model of ischemia-reperfusion myocardial infarction. Treatments were initiated 48 hr after MI and were continued for 6 weeks. MI was created by transient ligation the left anterior descending artery with a surgical suture for 1 hour followed by reperfusion. Treatments consisted of a suspension vehicle, Compound 1 at 0.01, 0.1, 1 and 10 mg/kg. At the end of 6 weeks of treatment, hearts were removed for histological evaluation of left ventricle structure and scar structure. This is a model of ischemic heart disease.\nIn addition, the effect of Compound 1 on cardiac function was measured by the pressure-volume conductance catheter technique to assess structure/function relationships. The structure of the infarct wall was measured histologically to determine the extent of myocardial infarction and myocardial tissue salvage. In this model, blood reperfusion to the site of ischemia is designed to salvage myocardium within the area at risk of myocardial infarction. However, in this model, there is potential for additional insult to tissue caused by reperfusion that can stimulate added myocardial necrosis. Therefore, measurement of myocardial salvage within the myocardial infarct zone is an important endpoint in this model. […] Preservation of viable myocardium was obtained at the 0.1, 1 and 10 mg/kg doses (31-41% preservation relative to vehicle, *P<0.05, **P<0.01, ***P<0.001).\nA pressure-volume conductance catheter was used to measure left ventricular ejection fraction at the end of the treatment phase. The fraction of blood pumped out of the left ventricle was measured per contraction cycle (i.e., ejection fraction) and was used to assess overall cardiac function following 6 weeks of treatment. […]"}, "[2]": {"biological_target": "T1, Human FPR1 (Homo sapiens, UniProt P21462)", "T1 construct": "expressed in transfected cells; host or cells: CHO-A12", "T1 sequence (P21462 1-350)": "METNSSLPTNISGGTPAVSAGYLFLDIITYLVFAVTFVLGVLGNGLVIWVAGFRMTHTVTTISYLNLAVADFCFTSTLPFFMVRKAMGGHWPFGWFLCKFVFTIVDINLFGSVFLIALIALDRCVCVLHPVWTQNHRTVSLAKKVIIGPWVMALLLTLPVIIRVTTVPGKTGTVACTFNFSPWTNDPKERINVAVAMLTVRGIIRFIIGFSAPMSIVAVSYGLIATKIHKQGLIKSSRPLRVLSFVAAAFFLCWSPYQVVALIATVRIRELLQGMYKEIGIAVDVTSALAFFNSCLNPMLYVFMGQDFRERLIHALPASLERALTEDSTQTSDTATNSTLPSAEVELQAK", "assay": "FPR1 cAMP assay (cAMP inhibition)", "format": "cell-based", "conditions": "Human FPR1/CHO-A12", "method": "A mixture of forskolin (5 μM final for FPR2 or 10 μM final for FPR1) and IBMX (200 μM final) were added to 384-well Proxiplates (Perkin-Elmer) pre-dotted with test compounds in DMSO (1% final) at final concentrations in the range of 0.1 nM to 10 μM. CHO overexpressing human FPR1 or human FPR2 receptors were cultured in F-12 (Ham's) medium supplemented with 10% qualified FBS, 250 μg/ml zeocin and 300 μg/ml hygromycin (Life Technologies). Reactions were initiated by adding 2,000 human FPR2 cells per well or 4,000 human FPR1 cells per well in Dulbecco's PBS (with calcium and magnesium) (Life Technologies) supplemented with 0.1% BSA (Perkin-Elmer). The reaction mixtures were incubated for 30 min at room temperature. The level of intracellular cAMP was determined using the HTRF HiRange cAMP assay reagent kit (Cisbio) according to manufacturer's instruction. Solutions of cryptate conjugated anti-cAMP and d2 flurorophore-labelled cAMP were made in a supplied lysis buffer separately. […] After a 1 h room temperature incubation, time-resolved fluorescence intensity was measured using the Envision (Perkin-Elmer) at 400 nm excitation and dual emission at 590 nm and 665 nm. […] The potency and activity of Compound 1 to inhibit cAMP production was then determined by fitting to a 4-parametric logistic equation from a plot of cAMP level versus compound concentrations. […]"}, "[3]": {"tested_on": "DOCA-challenged cardiac fibrosis in mice", "format": "in vivo", "method": "In a second model of non-ischemic heart disease with hypertension, mice were subjected to uni-nephrectomy and challenged with deoxycorticosterone acetate (DOCA) and saline drinking water to stimulate cardiac hypertrophy and left ventricular fibrosis. Mice were administered DOCA using subcutaneously implanted pellets (50 mg). A separate group of mice were subjected to surgery via creation of subcutaneous pocket (surgical “sham” group); these mice served as control for pellet implantation surgery. Mice were treated with Compound 1 (1 mg/kg, QD) or dosing solution (QD, referred to as vehicle) 24 hours after surgery. Treatment with Compound 1 was given to mice for 3 weeks. At the end of treatment phase, hearts were removed from animals and evaluated for collagen levels/fibrosis by cross-sectional histology of the hearts.\nMyocardial fibrosis was evaluated in the mouse with continuous DOCA challenge administered by subcutaneous release pellet. The model increases systemic blood pressure and tissue inflammation in target tissues such as the myocardium via agonism of the mineralocorticoid receptor by DOCA. It also involves surgical uni-nephrectomy and supplementation with saline in the drinking water to further drive disease pathology. This is a model of non-ischemic heart disease.\nThe effect of Compound 1 on cardiac fibrosis development in the DOCA-salt mouse model was evaluated histologically. […]"}}}
{"smiles": "COc1cc(F)c([C@@H]2CNC(=O)[C@H]2NC(=O)Nc2ccccc2)c(F)c1", "note": "[Compound 1, 1-((3S,4R)-4-(2,6-difluoro-4-methoxyphenyl)-2-oxopyrrolidin-3-yl)-3-phenylurea]", "values": [{"measurement": "improvement in left ventricular ejection fraction vs. vehicle (pressure-volume conductance catheter)", "setting": "[1]; 0.01 mg/kg PO QD, P<0.05", "value": 37, "unit": "%"}, {"measurement": "improvement in left ventricular ejection fraction vs. vehicle (pressure-volume conductance catheter)", "setting": "[1]; 1 mg/kg PO QD, P<0.01", "value": 51, "unit": "%"}, {"measurement": "preservation of viable myocardium across infarct wall relative to vehicle", "setting": "[1]; 0.1, 1 and 10 mg/kg PO QD", "value": "31-41%"}, {"measurement": "left ventricular ejection fraction vs. vehicle (pressure-volume conductance catheter)", "setting": "[1]; other doses (0.1 and 10 mg/kg)", "value": "trend towards improved ejection fraction"}, {"measurement": "EC50", "setting": "[2]", "value": 1250, "unit": "nM"}, {"measurement": "reduction of left ventricular fibrosis vs. vehicle treatment group", "setting": "[3]; 1 mg/kg QD for 3 weeks, started 24 h after surgery, P<0.01", "value": 50, "unit": "%"}, {"measurement": "tolerability during in-life phase", "setting": "[3]; mouse, in vivo, 1 mg/kg", "value": "well tolerated"}]}
